This note sets out measurements from patent EP0598753B1, “MANGANESE COMPLEXES OF NITROGEN-CONTAINING MACROCYCLIC LIGANDS EFFECTIVE AS CATALYSTS FOR DISMUTATING SUPEROXIDE” (MONSANTO COMPANY, priority 1991, dated 1993).

The nature of data set [1]: Stopped-flow kinetic analysis of catalytic dismutation of superoxide. Format: biochemical. The settings on record: for kCAT: catalytic rate constant for dismutation of superoxide, pH 8.1 and 21°C; for SOD activity (catalysis of the dismutation of superoxide), in words: stopped-flow kinetic analysis. From the text: Stopped-flow kinetic analysis is an accurate and direct method for quantitatively monitoring the decay rates of superoxide in water.
For the attainment of consistent and accurate measurements all reagents were biologically clean and metal-free. To achieve this, all buffers (Calbiochem) were biological grade, metal-free buffers and were handled with utensils which had been washed first with 0.1 N HCl, followed by purified water, followed by a rinse in a 10^-4 M EDTA bath at pH 8, followed by a rinse with purified water and dried at 65°C for several hours. Dry DMSO solutions of potassium superoxide (Aldrich) were prepared under a dry, inert atmosphere of argon in a Vacuum Atmospheres dry glovebox using dried glassware. The DMSO solutions were prepared immediately before every stopped-flow experiment. A mortar and pestle were used to grind the yellow solid potassium superoxide (~100 mg). The powder was then ground with a few drops of DMSO and the slurry transferred to a flask containing an additional 25 ml of DMSO. The resultant slurry was stirred for 1/2 h and then filtered. […] These solutions were transferred to a glovebag under nitrogen in sealed vials prior to loading the syringe under nitrogen. It should be noted that the DMSO/superoxide solutions are extremely sensitive to water, heat, air, and extraneous metals. A fresh, pure solution has a very slight yellowish tint.
Water for buffer solutions was delivered from an in-house deionized water system to a Barnstead Nanopure Ultrapure Series 550 water system and then double distilled, first from alkaline potassium permanganate and then from a dilute EDTA solution. For example, a solution containing 1.0 g of potassium permanganate, 2 liters of water and additional sodium hydroxide necessary to bring the pH to 9.0 were added to a […] fitted with a solvent distillation head. This distillation will oxidize any trace of organic compounds in the water. The final distillation was carried out under nitrogen in a 2.5-liter flask containing 1500 ml of water from the first still and 1.0 x 10^-6M EDTA. This step will remove remaining trace metals from the ultrapure water. To prevent EDTA mist from volatilizing over the reflux arm to the still head, the 40-cm vertical arm was packed with glass beads and wrapped with insulation. This system produces deoxygenated water that can be measured to have a conductivity of less than 2.0 nanomhos/cm^2.
The stopped-flow spectrometer system was designed and manufactured by Kinetic Instruments Inc. (Ann Arbor, MI) and was interfaced to a MAC IICX personal computer. The software for the stopped-flow analysis was provided by Kinetics Instrument Inc. and was written in QuickBasic with MacAdios drivers. Typical injector volumes (0.10 ml of buffer and 0.006 ml of DMSO) were calibrated so that a large excess of water over the DMSO solution were mixed together. […] Aqueous solutions to be mixed with the DMSO solution of superoxide were prepared using 80 mM concentrations of the Hepes buffer, pH 8.1 (free acid + Na form). One of the reservoir syringes was filled with 5 ml of the DMSO solution while the other was filled with 5 ml of the aqueous buffer solution. The entire injection block, mixer, and spectrometer cell were immersed in a thermostatted circulating water bath with a temperature of 21.0 ± 0.5°C.
Prior to initiating data collection for a superoxide decay, a baseline average was obtained by injecting several shots of the buffer and DMSO solutions into the mixing chamber. These shots were averaged and stored as the baseline.

For data set [2], the system named is human aortic endothelial cells (HAE cells).
From the text: Human peripheral blood neutrophils were isolated from fresh venous blood of healthy volunteers. EDTA anticoagulated blood was separated using a single step density centrifugation (Polymorphprep; Nycomed Pharma, Oslo, Norway) followed by several washes in Hank's balanced salt solution supplemented with 0.5% BSA (Bovine Serum Albumin) (HBSSB) and the hypertonic lysis of erythrocytes. Neutrophils were counted via Coulter electronic particle counter and resuspended in HBSSB supplemented with 25% Endothelial Basal Medium (EBM), (Clonetics Corporation, San Diego, CA) at a concentration of 5 x 10^6 polymorphonuclear leukocytes (PMN)/ml.
The cytotoxic effects of stimulated neutrophils on endothelial cells were determined using a ^51Cr-release assay as previously described (Moldow, C.F., and Jacob, H.S. (1984) Methods Enzymol. 105, 378-385). Confluent monolayers of human aortic endothelial cells (HAE cells; Clonetics) grown in 96-well culture plates were prelabeled with 1 µCi/well ^51Cr (Na2 ^51Cr2O4, New England Nuclear, Boston, MA). The cells were incubated for 18 h at 37°C, then cytokine-activated with 10 Units/well human recombinant tumor necrosis factor-a (hrTNF-α; Monsanto Company, St. Louis, MO) for 4 h at 37°C. The cells were washed twice to remove unincorporated radioactivity with Hank's balanced salt solution supplemented with 0.5% BSA. To assess inhibition of PMN-mediated cytotoxicity, manganese(II) complexes at various doses (0-300 µM) were added to five replicate wells/dose of HAE cells immediately prior to the addition of PMN. Suspensions of PMN in HBSSB supplemented with 25% Endothelial Basal Medium were added to the wells at a neutrophil to endothelial cell ratio of 50:1. The PMN were allowed to adhere for 15 minutes at 37°C, primed with 125 Units/well hrTNF-α (Berkow, R.L., Wang, D., Larrick, J.W., Dodson, R.W., and Howard, T.H. (1987) J. Immunol. 139, 3783-3791; Varani, J.; Bendelow, M. J. Sealey, D. E.; Kunkel, S. L.; Gannon, D. E.; Ryan, U.S.; and Ward, P.A. (1987) Lab. Invest., 59, 292-295) for 10 minutes, and stimulated with human recombinant complement component C5a (Sigma Chemical, St. Louis, MO). […] After an additional incubation of 4 hours at 37°C, 200 µl of the 250 µl reaction volume (soluble fraction) was removed to a tube for counting. The cells were washed twice with 200 µl HBSSB (nonadherent fraction) and the washes pooled with the soluble fraction. The adherent fraction was collected by lysing the HAE cells with 200 µl 1N NaOH for 30 minutes and removing to separate tubes. Both fractions were analyzed by gamma scintillation spectrometry. The percentage cytotoxicity was calculated by the following formula: % Cytotoxicity =(cpm (soluble + nonadherent fractions))/(cpm (soluble + nonadherent + adherent fractions))x 100 [formula] Specific cytotoxicity reflects the difference between ^51Cr-release induced by stimulated PMN and unstimulated PMN. The IC50 values for the manganese(II) complexes for protection against neutrophil-mediated cytotoxicity were determined from a computer-driven logistic regression equation from a plot of % specific cytotoxicity versus the concentration of the manganese(II) complex.

“Also recorded” adds a separate entry of the source.

In the case of “{Manganese(II)dichloro[2-(1-Naphthyl)-1,4,7,10,13-pentaazacyclopentadecane]} [Example 32]”, the kCAT in data set [1] came out at 6.98e+06 M⁻¹ s⁻¹.
As to “[Manganese(II)(1-Methyl-1,4,7,11,14-pentaazacyclohexadecane)] Chloride [Example 16]”, the kCAT entry in data set [1] (given as ND) was “ND (Manganese(II) complex has no detectable superoxide dismutase activity. (kcat<10^6M^-1sec^-1))”. Also, in data set [1], the “SOD activity (catalysis of the dismutation of superoxide), in words” value (from here on “SOD activity”) was “ineffective at catalyzing the dismutation of superoxide”.
In the same order, the values of “[Manganese(III)(1,4,7,11,14-Pentaazacycloheptadecane)] Chloride [Example 11]” are “ND (Manganese(II) complex has no detectable superoxide dismutase activity. (kcat<10^6M^-1sec^-1))” and “ineffective at catalyzing the dismutation of superoxide”.
For “[Manganese(II)(5,7,7,12,14,14-Hexamethyl-1,4,8,11-tetraazacyclotetradeca-4,11-diene)] Chloride [Example 22]”, in data set [1] (given as ND), the kCAT result is “ND (Manganese(II) complex has no detectable superoxide dismutase activity. (kcat<10^6M^-1sec^-1))”.
In the case of “[Manganese(II)(2,7,12-Trimethyl-3,7,11,17-tetraazabicyclo[11.3.1]heptadeca-1(17),2, 11,13,15-pentaene)] Chloride [Example 24]”, the kCAT entry in data set [1] (given as ND) is recorded as “ND (Manganese(II) complex has no detectable superoxide dismutase activity. (kcat<10^6M^-1sec^-1))”.
On to “[Manganese(II) (1,4,8,11-Tetraazacyclotetradecane)] Chloride [Example 20]”, for which, in data set [1] (given as ND), the kCAT entry is “ND (Manganese(II) complex has no detectable superoxide dismutase activity. (kcat<10^6M^-1sec^-1))”. Further, the “SOD activity” value in data set [1] is given as “are not catalysts for the dismutation of superoxide”.
As for “{Manganese(II)dichloro[(2S,8R)-Dimethyl-1,4,7,10,13-penta-azacyclopentadecane]} [Example 34]”, the kCAT in data set [1] was found to be 7.08e+06 M⁻¹ s⁻¹.
In the case of “Manganese(II)(2,12-Dimethyl-3,7,11,17-tetraazabicyclo[11.3.1]heptadeca-1(17),2,11,13,15 -pentaenel] Chloride [Example 23]”, in data set [1] (given as ND), the kCAT result is “ND (Manganese(II) complex has no detectable superoxide dismutase activity. (kcat<10^6M^-1sec^-1))”.
Regarding “[Manganese(II)(1,4,8,12-Tetraazacyclopentadecane)] Chloride [Example 21]”, the kCAT entry in data set [1] (given as ND) is reported as “ND (Manganese(II) complex has no detectable superoxide dismutase activity. (kcat<10^6M^-1sec^-1))”. In addition, the “SOD activity” value in data set [1] is given as “do not have SOD activity”.
Consider “[Manganese(II)(1,4,8,11-Tetramethyl-1,4,8,11-tetraazacyclotetradecane)]Chloride [Example 25]”, for which the kCAT result in data set [1] (given as ND) is recorded as “ND (Manganese(II) complex has no detectable superoxide dismutase activity. (kcat<10^6M^-1sec^-1))”. For the same molecule, the “SOD activity” value in data set [1] is “are not catalysts for the dismutation of superoxide”.
As to “[Manganese(II)1,4,8,12-tetramethyl-1,4,8,12-tetraazacyclopentadecane)] Chloride [Example 18]”, the kCAT entry in data set [1] (given as ND) is reported as “ND (Manganese(II) complex has no detectable superoxide dismutase activity. (kcat<10^6M^-1sec^-1))”. Also, in data set [1], the “SOD activity” value was “do not have SOD activity”.
In the same order, the values of “[Manganese(II)1,4,7,10,13-Pentamethyl-1,4,7,10,13-pentaazacyclopentadecane)] Chloride [Example 19]” are “ND (Manganese(II) complex has no detectable superoxide dismutase activity. (kcat<10^6M^-1sec^-1))” and “ineffective at dismutating superoxide”.
In the case of “[Manganese(II)[1,4,7,10,13,16,19-Heptaazaacycloheneicosane)]Chloride [Example 14]”, in data set [1] (given as ND), the kCAT result is “ND (Manganese(II) complex has no detectable superoxide dismutase activity. (kcat<10^6M^-1sec^-1))”. Moreover, the “SOD activity” value in data set [1] is recorded as “are not catalysts for the dismutation of superoxide”.
“[Manganese(II)dichloro(2,3-Benzo-1,4,7,10,13-pentaazacyclopentadecane)] [Example 37]” had a kCAT in data set [1] of 4.6e+06 M⁻¹ s⁻¹.
In the case of MnCl2, the kCAT entry in data set [1] (given as ND) was “ND (Manganese(II) complex has no detectable superoxide dismutase activity. (kcat<10^6M^-1sec^-1))”. For the same molecule, in data set [1], the “SOD activity” value is “failed to perturb the second order spontaneous decay of superoxide; also recorded: has no SOD activity”.
With “[Manganese(II)nitrate(1,4,7,10,13-pentaazacyclopentadecane)] Nitrate [Example 9]”, the kCAT in data set [1] worked out at 2.3e+07 M⁻¹ s⁻¹.
The molecule “[Manganese(II)dichloro(trans-2,3-Cyclohexano-1,4,7,10,13-pentaazacyclopentadecane)] [Example 35]” yielded a kCAT in data set [1] of 3.44e+07 M⁻¹ s⁻¹.
For “[Manganese(II)(1,4,7,10,14-Pentaazacycloheptadecane)] Chloride [Example 12]”, the kCAT entry in data set [1] (given as ND) was “ND (Manganese(II) complex has no detectable superoxide dismutase activity. (kcat<10^6M^-1sec^-1))”. The “SOD activity” value in data set [1] is “ineffective at catalyzing the dismutation of superoxide”.
Consider “[Manganese(II)[1,4,7,10,13,16-hexaazacyclooctadecane)] Chloride [Example 13]”, for which the kCAT result in data set [1] (given as ND) is reported as “ND (Manganese(II) complex has no detectable superoxide dismutase activity. (kcat<10^6M^-1sec^-1))”. In addition, the “SOD activity” value in data set [1] is reported as “are not catalysts for the dismutation of superoxide”.
In the case of “[Manganese(II)1,5,9,13-Tetraazacyclohexadecane)] Chloride [Example 10]”, in data set [1] (given as ND), the kCAT result is “ND (Manganese(II) complex has no detectable superoxide dismutase activity. (kcat<10^6M^-1sec^-1))”. The “SOD activity” value in data set [1] is given as “are not catalysts for the dismutation of superoxide”.
“[Manganese(II)[1-oxa-4,7,10,13-Tetrazacyclopentadecane)] Chloride [Example 17]”: in data set [1] (given as ND), the kCAT result is listed as “ND (Manganese(II) complex has no detectable superoxide dismutase activity. (kcat<10^6M^-1sec^-1))”. For the same molecule, the “SOD activity” value in data set [1] is “do not have SOD activity”.
“[Manganese(II)(1-Methyl-1,4,7,10,13-pentaazacyclopentadecane)]Chloride [Example 15]”: the kCAT entry in data set [1] (given as ND) is listed as “ND (Manganese(II) complex has no detectable superoxide dismutase activity. (kcat<10^6M^-1sec^-1))”. For the same molecule, the “SOD activity” value in data set [1] is on record as “ineffective at dismutating superoxide”.
Molecule “[Manganese(II)dichloro(3,6,9,12,18-Pentaazabicyclo(12.3.1)octadecane)] [Example 38]” registered a kCAT in data set [1] of 5.28e+06 M⁻¹ s⁻¹.
Still for that read-out and setting: the value for “{Manganese(II)dichloro[(2S, 5R)-Dimethyl-1,4,7,10,13-pentaazacyclopentadecane]} [Example 33]” was 2.9e+07 M⁻¹ s⁻¹.
In the case of “[Manganese(II)(2,13-Dimethyl-3,6,9,12,18-pentaazabicyclo[12.3.1]octadeca-1(18)2,12,14,16 -pentaene)]Chloride [Example 26]”, the kCAT result in data set [1] (given as ND) is listed as “ND (Manganese(II) complex has no detectable superoxide dismutase activity. (kcat<10^6M^-1sec^-1))”.
With `C[C@@H]1CNCCNCCNCCNCCN1.[Cl-].[Cl-].[Mn+2]` [Example 4, [Manganese(II)dichloro((R)-2-Methyl-1,4,7,10,13-pentaazacyclopentadecane)]], the “protection against human neutrophil-mediated cytotoxicity, in words” value in data set [2] was “protective against human neutrophil-mediated cytotoxicity”.
